According to patent publication US4680310A, “Tetrahydronaphthalene derivatives” (Hoffmann-La Roche Inc., priority 1984, dated 1987):

What was measured:
narcotized dog = assay: Haemodynamic parameters in the narcotized dog (test C); type: in vivo; details: 0.1 mg/kg i.v.
Source text: C. Haemodynamic parameters in the narcotized dog:
The 4 most important measurement parameters (with respective measurement units) of the haemodynamic experiment are: (1) CBF: Coronary Blood Flow (in ml/min)--the velocity of blood flow through the coronary arteries; (2) HR: heart rate (in beats/min)--the heart frequency; (3) BP: blood pressure (in mm Hg)--the blood pressure; and (4) dp/dt: rate of increase in left ventricular pressure (in mm Hg/sec) as a measurement of the contractility force of the heart. The values are given as the % maximum variation from the initial value (Δ%) per dosage administered.
There is thus obtained not only an overall picture of the activity of the substance, but also an estimation as to the potential selectivity for a specific part of the circulatory system in the entire organism. After the administration of an anaesthetic, the dog is intubated and respired artificially. Blood pH, pCO2, pO2 and haemoglobin are measured hourly with a blood-gas analyser. The blood pressure (systolic and diastolic) is measured with a probe in the aorta abdominalis. The heart frequency is recorded by means of a tachometer, which is disengaged from the pressure pulse. For the other measurements the heart must first be opened in order that a probe can be inserted in the left ventricle (heart chamber) for the pressure measurements (dp/dt). The coronary blood flow is measured with a flowing probe in the left coronary artery (descendens).

[1] = system: ^3 H-nifedipine (or ^3 H-nitrendipine) receptor binding on homogenates or partially-cleaned membranes of rabbit or guinea pig heart; assay: ^3 H-Nifedipine binding determinations (test A); details: nifedipine established as 100%
Method: A. ^3 H-Nifedipine binding determinations:
The determination is carried out on homogenates or on partially-cleaned membranes of rabbit or guinea pig heart. The reaction mixture (0.3 ml) consists of 0.2-0.8 mg of membrane protein, 1 nM of ^3 H-nifedipine (or 0.25 nM of ^3 H-nitrendipine) and various concentrations of the test substances. The incubation lasts 30 minutes at 25° C. or 37° C. and is stopped by dilution with the incubation buffer; a filtration is subsequently carried out. The filter-bound radioactivity is measured with a scintillation counter. Specific binding (i.e. receptor-bound) is defined as the differences between total and unspecific-bound radioactivity. The unspecific binding is determined in the presence of an excess of non-radioactive nifedipine (1 μM).
The activity (potency) of a compound in this test is defined by the IC50 and % maximum inhibition values (% max. inhibition). The IC50 is the substance concentration (in mol/l) which produces a half-maximum inhibition of the specific ^3 H-nifedipine (or ^3 H-nitrendipine) binding. The maximum inhibition of the specific binding is given by the % maximum inhibition value; this value is established as 100% for the reference compound nifedipine. Both parameters are extrapolated from a concentration-binding curve.

[2] = system: Coronary artery strips of dogs (KCl contracture; tension-dependent calcium channel); assay: Relaxation of KCl contracture in coronary artery strips of dogs (test B); type: cell-based, dog; details: Canis lupus familiaris, KCl 84.7 mM, 37° C., read-out: IC50 (half-maximum relaxation of a KCl contracture)
Method: B. Coronary artery strips of dogs:
In this experiment spiral strips (2-2.5 mm wide and 10 mm long) of coronary arteries of dogs are cut and hung up in an organ chamber under an initial tension of 1.5 g. These strips are pre-incubated for a duration of about 1 to 2 hours in Krebs-Henseleit buffer solution which is gassed with Oxycarbon (a mixture of 95% oxygen and 5% carbon dioxide) at 37° C. The relaxing activity of one of these substances is subsequently tested on a KCl (84.7 mM) contracture by the addition of increasing concentrations of the test substance to the organ chamber. The calcium channel-blocking activity of the test substances can therefore be established, as the KCl contracture occurs exclusively by means of calcium flow through the tension-dependent calcium channel.
The activity of a test substance in this test is given by the IC50 value. This value is defined as the substance concentration (in mol/l) which produces a half-maximum relaxation of a KCl contracture. This value is also extrapolated from the resulting concentration-activity curve.

Structure (SMILES) | % max inhib. (maximum inhibition of specific binding) [1] [%] | IC50 [2] [µM] | BP (blood pressure), % maximum variation from the initial value (narcotized dog) | CBF (Coronary Blood Flow), % maximum variation from the initial value (narcotized dog) | HR (heart rate), % maximum variation from the initial value (narcotized dog) | dp/dt (rate of increase in left ventricular pressure), % maximum variation from the initial value (narcotized dog)
COc1ccc(CCN(C)CC[C@@]2(OC(C)=O)CCc3cc(OC)c(OC)cc3[C@@H]2C(C)C)cc1OC (relative stereo) [D, 6,7-dimethoxy-2-[2-[(3,4-dimethoxyphenethyl)methylamino]ethyl]-1,2,3,4-tetrahydro-1α-isopropyl-2α-naphthyl acetate] | 82 | 0.087 | -9 Δ % | +58 Δ % | -15 Δ % | +3 Δ %
COCC(=O)O[C@]1(CCN(C)CCc2ccc(OC)c(OC)c2)CCc2cc(F)ccc2[C@@H]1C(C)C [B, [1S,2S]-2-[2-[(3,4-dimethoxyphenethyl)methylamino]ethyl]-6-fluoro-1,2,3,4-tetrahydro-1-isopropyl-2-naphthyl methoxyacetate] | 100 | 0.0061 | -23 Δ % | +100 Δ % | -20 Δ % | +13 Δ %

More lines, in order of falling IC50 [2], values ahead:

% max inhib. (maximum inhibition of specific binding) [1] [%] | IC50 [2] [µM] | Structure (SMILES) | BP (blood pressure), % maximum variation from the initial value (narcotized dog) | CBF (Coronary Blood Flow), % maximum variation from the initial value (narcotized dog) | HR (heart rate), % maximum variation from the initial value (narcotized dog) | dp/dt (rate of increase in left ventricular pressure), % maximum variation from the initial value (narcotized dog)
73 | 0.078 | COCC(=O)O[C@@]1(CCN(C)CCc2ccc(OC)c(OC)c2)CCc2cc(F)ccc2[C@H]1C(C)C [C, [1R,2R2-[2[(3,4Dimethoxyphenethyl)methylamino]ethyl6-fluoro-1,2,3,4-tetraydro-1-isopropyl-2-napthyl methoxyacetate] | -16 Δ % | +58 Δ % | -5 Δ % | +26 Δ %
88 | 0.02 | COCC(=O)O[C@]1(CCN(C)CCc2ccc(OC)c(OC)c2)CCc2cc(OC)c(OC)cc2[C@@H]1C(C)C (relative stereo) [E, 6,7-dimethoxy-2-[2-[(3,4-dimethoxyphenethyl)methylamino]ethyl]-1,2,3,4-tetrahydro-1α-isopropyl-2α-naphthyl methoxyacetate] | -12 Δ % | +65 Δ % | -7 Δ % | +22 Δ %
77 | 0.0028 | COCC(=O)O[C@]1(CCN(C)CCc2ccc(OC)c(OC)c2)CCc2cc(F)ccc2[C@@H]1C(C)C (relative stereo) [A, 2-[2-[(3,4-Dimethoxyphenethyl)methylamino]ethyl]-6-fluoro-1,2,3,4-tetrahydro-1α-isopropyl-2α-naphthyl methoxyacetate] | -18 Δ % | +93 Δ % | -3 Δ % | -5 Δ %
